pIC50: −log10 of the molar value. Several values for one entry are separate records, joined by “and”; a condition that tells them apart may be missing. Equal values may be shown once.
Tested on: 556581-035-R-J1-PDC complex spheroid growth
Assay: Anticancer human tumor 556581-035-R-J1-PDC patient-derived ovarian carcinoma cell line growth inhibition [AhR]
Details: for viability, T/C: stronger effect = lower value
Summary of the method: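 Agents were dosed in half-log steps down from roughly clinical Cmax, or from 10 microM where Cmax was unknown, alone and with AhR antagonists. Read-out: percent test/control growth of tumor spheroids containing HUVEC and MSC stromal cells.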

[1] = curve of first compound, second compound 0.1 µM
[2] = curve of first compound, second compound 0.316 µM
[3] = curve of first compound, second compound 1 µM
[4] = curve of first compound, second compound 3.16 µM
[5] = curve of first compound, second compound 10 µM
[6] = second compound 0.1 µM, first compound 0.0316 µM
[7] = second compound 0.1 µM, first compound 0.1 µM
[8] = second compound 0.1 µM, first compound 0.316 µM
[9] = second compound 0.1 µM, first compound 1 µM
[10] = second compound 0.1 µM, first compound 3.16 µM
[11] = second compound 0.1 µM, first compound 10 µM
[12] = second compound 0.316 µM, first compound 0.0316 µM
[13] = second compound 0.316 µM, first compound 0.1 µM
[14] = second compound 0.316 µM, first compound 0.316 µM
[15] = second compound 0.316 µM, first compound 1 µM
[16] = second compound 0.316 µM, first compound 3.16 µM
[17] = second compound 0.316 µM, first compound 10 µM
[18] = second compound 1 µM, first compound 0.0316 µM
[19] = second compound 1 µM, first compound 0.1 µM
[20] = second compound 1 µM, first compound 0.316 µM
[21] = second compound 1 µM, first compound 1 µM
[22] = second compound 1 µM, first compound 3.16 µM
[23] = second compound 1 µM, first compound 10 µM
[24] = second compound 3.16 µM, first compound 0.0316 µM
[25] = second compound 3.16 µM, first compound 0.1 µM
[26] = second compound 3.16 µM, first compound 0.316 µM
[27] = second compound 3.16 µM, first compound 1 µM
[28] = second compound 3.16 µM, first compound 3.16 µM
[29] = second compound 3.16 µM, first compound 10 µM
[30] = second compound 10 µM, first compound 0.0316 µM
[31] = second compound 10 µM, first compound 0.1 µM
[32] = second compound 10 µM, first compound 0.316 µM
[33] = second compound 10 µM, first compound 1 µM
[34] = second compound 10 µM, first compound 3.16 µM
[35] = second compound 10 µM, first compound 10 µM
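For viability, T/C in this document: compound exposure lasted 7 days; 100% = DMSO vehicle control growth.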

Row | SMILES | pIC50 [1] | pIC50 [2] | pIC50 [3] | pIC50 [4] | pIC50 [5] | viability, T/C [6] | viability, T/C [7] | viability, T/C [8] | viability, T/C [9] | viability, T/C [10] | viability, T/C [11] | viability, T/C [12] | viability, T/C [13] | viability, T/C [14] | viability, T/C [15] | viability, T/C [16] | viability, T/C [17] | viability, T/C [18] | viability, T/C [19] | viability, T/C [20] | also measured
1 | Nc1ccccc1NC(=O)c1ccc(CNC(=O)OCc2cccnc2)cc1 + CC(CO)NC(=O)c1cc(-c2ccc(Cl)cc2)nn(-c2cnn(C)c2)c1=O | 5.87 | 5.80 | 5.78 | 5.84 | 5.81 | 96.9% | 102% | 78% | 53.2% | 36.9% | 17.5% | 107% | 91% | 87.1% | 58.7% | 34.9% | 15.4% | 118% | 100% | 77.3% | viability, T/C [21]: 60.8%; viability, T/C [22]: 38.6%; viability, T/C [23]: 17.8%; viability, T/C [24]: 105%; viability, T/C [25]: 102%; viability, T/C [26]: 84.8%; viability, T/C [27]: 58%; viability, T/C [28]: 33.2%; viability, T/C [29]: 20.6%; viability, T/C [30]: 106%; viability, T/C [31]: 103%; viability, T/C [32]: 88.6%; viability, T/C [33]: 62.8%; viability, T/C [34]: 30.4%; viability, T/C [35]: 12.6%
2 | O=C(c1cc(Cc2n[nH]c(=O)c3ccccc23)ccc1F)N1CCN(C(=O)C2CC2)CC1 + Cc1ccccc1N=Nc1ccc(NC(=O)c2ccnn2C)c(C)c1 | < 5.00 | < 5.00 | < 5.00 | < 5.00 | < 5.00 | 100% | 92.5% | 89.2% | 95% | 78.3% | 76.1% | 103% | 88.2% | 87.8% | 97.3% | 87.8% | 72.3% | 92.7% | 96.8% | 93.3% | viability, T/C [21]: 99.5%; viability, T/C [22]: 93.3%; viability, T/C [23]: 76.6%; viability, T/C [24]: 89%; viability, T/C [25]: 93.7%; viability, T/C [26]: 84.2%; viability, T/C [27]: 80.9%; viability, T/C [28]: 82.4%; viability, T/C [29]: 77.5%; viability, T/C [30]: 78.2%; viability, T/C [31]: 82.3%; viability, T/C [32]: 82.5%; viability, T/C [33]: 82.6%; viability, T/C [34]: 82.4%; viability, T/C [35]: 74.8%
3 | Nc1ccn(C2OC(CO)C(O)C2(F)F)c(=O)n1 (centres undefined) + CC(CO)NC(=O)c1cc(-c2ccc(Cl)cc2)nn(-c2cnn(C)c2)c1=O | > 7.50 | > 7.50 | > 7.50 | > 7.50 | > 7.50 | 37% | 40.3% | 35.8% | 35.8% | 37.5% | 31.4% | 36.6% | 35.2% | 39.2% | 41.1% | 32% | 29.3% | 35% | 36.5% | 36.5% | viability, T/C [21]: 38.5%; viability, T/C [22]: 36.2%; viability, T/C [23]: 36.6%; viability, T/C [24]: 32.8%; viability, T/C [25]: 37.3%; viability, T/C [26]: 36.2%; viability, T/C [27]: 38.3%; viability, T/C [28]: 35.5%; viability, T/C [29]: 34.3%; viability, T/C [30]: 37.4%; viability, T/C [31]: 34.4%; viability, T/C [32]: 42.5%; viability, T/C [33]: 40.6%; viability, T/C [34]: 39.6%; viability, T/C [35]: 36%
4 | COc1ccc([C@@H](O)c2cc(-c3ncnc4cc(N5CCOCC5)ccc34)c(F)cc2Cl)nn1 + CC(CO)NC(=O)c1cc(-c2ccc(Cl)cc2)nn(-c2cnn(C)c2)c1=O | 5.27 | 5.18 | 5.11 | < 5.00 | < 5.00 | 98% | 105% | 92.9% | 69.7% | 61% | 41% | 110% | 108% | 99.9% | 69.5% | 58.7% | 45% | 104% | 117% | 108% | viability, T/C [21]: 91.1%; viability, T/C [22]: 61.9%; viability, T/C [23]: 46.4%; viability, T/C [24]: 113%; viability, T/C [25]: 112%; viability, T/C [26]: 105%; viability, T/C [27]: 85.3%; viability, T/C [28]: 64.3%; viability, T/C [29]: 51.7%; viability, T/C [30]: 113%; viability, T/C [31]: 110%; viability, T/C [32]: 109%; viability, T/C [33]: 82%; viability, T/C [34]: 62.4%; viability, T/C [35]: 53.2%
5 | Nc1ccccc1NC(=O)c1ccc(CNC(=O)OCc2cccnc2)cc1 | – | – | – | – | – | – | – | – | – | – | – | – | – | – | – | – | – | – | – | – | viability, T/C (compound 0.0316 µM): 107% and 100% and 98.1%; viability, T/C (compound 0.1 µM): 90.8% and 105% and 99%; viability, T/C (compound 0.316 µM): 90.4% and 74.8% and 71.6%; viability, T/C (compound 1 µM): 63.6% and 66.1% and 48.9%; viability, T/C (compound 3.16 µM): 37.2% and 42.8% and 26.6%; viability, T/C (compound 10 µM): 19.1% and 17% and 18.4%; pIC50 (curve of compound): 5.73 and 5.68 and 6.05
6 | Cn1ncnc1C1c2n[nH]c(=O)c3cc(F)cc(c23)NC1c1ccc(F)cc1 (centres undefined) | – | – | – | – | – | – | – | – | – | – | – | – | – | – | – | – | – | – | – | – | viability, T/C (compound 0.000316 µM): 108% and 106% and 107%; viability, T/C (compound 0.001 µM): 103% and 101% and 102%; viability, T/C (compound 0.00316 µM): 101% and 93.3% and 98.7%; viability, T/C (compound 0.01 µM): 92.7% and 93.9% and 101%; viability, T/C (compound 0.0316 µM): 100% (2×) and 103%; viability, T/C (compound 0.1 µM): 94.4% and 98.2% and 94.7%; pIC50 (curve of compound): < 7.00

Reference: PubChem BioAssay AID1918999 (Molecular Pharmacology Branch, DTP, NCI, 2023)
